# Measured values as given in patent US6245817A, “NPY5 receptor antagonists and methods for using same” (Bayer Corporation, priority 1999, dated 2001).
# Tests used:
# [1] = target: Human NPY4/PP1 receptor (Homo sapiens, UniProt P50391); assay: Human NPY4/PP1 Receptor Binding Assay; details: [125I]human PP; read-out: hNPY4 IC50
# [2] = target: T1, Human NPY1 Receptor (Homo sapiens, UniProt P25929); assay: Human NPY1 Receptor Binding Assay; details: SK-N-MC cells, [125I]PYY; read-out: hNPY1 IC50
# T1 sequence (P25929 1-384): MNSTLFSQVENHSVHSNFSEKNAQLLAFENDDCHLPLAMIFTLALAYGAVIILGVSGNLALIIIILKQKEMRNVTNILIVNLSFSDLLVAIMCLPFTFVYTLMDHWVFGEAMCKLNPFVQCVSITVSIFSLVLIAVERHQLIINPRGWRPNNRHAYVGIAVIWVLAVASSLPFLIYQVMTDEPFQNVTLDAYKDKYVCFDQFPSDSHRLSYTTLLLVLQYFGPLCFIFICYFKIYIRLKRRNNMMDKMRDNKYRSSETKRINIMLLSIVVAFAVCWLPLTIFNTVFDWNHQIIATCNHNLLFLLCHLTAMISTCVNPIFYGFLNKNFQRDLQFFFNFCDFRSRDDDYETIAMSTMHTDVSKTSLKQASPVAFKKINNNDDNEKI
# [3] = target: T2, Human NPY5 Receptor (Homo sapiens, UniProt Q15761); assay: Human NPY5 Receptor Binding Assay; details: [125I]PYY; read-out: hNPY5 IC50
# T2 sequence (Q15761 1-445): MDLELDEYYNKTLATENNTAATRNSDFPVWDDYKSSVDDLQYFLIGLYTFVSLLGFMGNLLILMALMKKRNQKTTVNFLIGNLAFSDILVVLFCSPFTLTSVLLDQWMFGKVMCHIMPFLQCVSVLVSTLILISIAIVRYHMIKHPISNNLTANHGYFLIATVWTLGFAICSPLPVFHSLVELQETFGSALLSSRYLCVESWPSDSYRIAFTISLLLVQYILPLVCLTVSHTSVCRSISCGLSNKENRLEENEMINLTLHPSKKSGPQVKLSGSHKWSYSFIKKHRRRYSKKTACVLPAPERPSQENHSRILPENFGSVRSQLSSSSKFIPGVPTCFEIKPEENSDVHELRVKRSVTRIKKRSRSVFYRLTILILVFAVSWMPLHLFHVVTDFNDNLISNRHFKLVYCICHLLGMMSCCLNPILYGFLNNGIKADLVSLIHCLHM
# Description: Human and Rat NPY5 Receptor Binding Assays
# Binding assays are performed on GF/C Millipore 96-well plates pretreated with 0.02% polyethylenimine. The binding buffer is 25 mM Tris, 120 mM NaCl, 5 mM KCl, 1.2 mM KH2 PO4, 2.5 mM CaCl2, 1.2 mM MgSO4, 0.1% BSA and 0.5 mg/ml bacitracin, pH 7.4. Samples consist of membrane protein, 75-100 pM [125I]PYY (porcine, NEN-DuPont) and drug dilution. Nonspecific binding is defined by 1 μM PYY. After a 2 hour incubation at room temperature with constant mixing, the samples are aspirated on a vacuum manifold, and rinsed with ice-cold binding buffer. The amount of radioactivity in each well is quantitated with either gamma counting or liquid scintillation. IC50 values, which correspond to 50% inhibition of specific binding, are determined with non-linear regression analysis.
# [4] = target: T3, Rat NPY5 Receptor (Rattus norvegicus, UniProt Q63634); assay: Rat NPY5 Receptor Binding Assay; details: for inhibition at 10 µM: values marked *, read-out: rNPY5 percent inhibition at 10 μM; for IC50: [125I]PYY, read-out: rNPY5 IC50
# T3 sequence (Q63634 1-445): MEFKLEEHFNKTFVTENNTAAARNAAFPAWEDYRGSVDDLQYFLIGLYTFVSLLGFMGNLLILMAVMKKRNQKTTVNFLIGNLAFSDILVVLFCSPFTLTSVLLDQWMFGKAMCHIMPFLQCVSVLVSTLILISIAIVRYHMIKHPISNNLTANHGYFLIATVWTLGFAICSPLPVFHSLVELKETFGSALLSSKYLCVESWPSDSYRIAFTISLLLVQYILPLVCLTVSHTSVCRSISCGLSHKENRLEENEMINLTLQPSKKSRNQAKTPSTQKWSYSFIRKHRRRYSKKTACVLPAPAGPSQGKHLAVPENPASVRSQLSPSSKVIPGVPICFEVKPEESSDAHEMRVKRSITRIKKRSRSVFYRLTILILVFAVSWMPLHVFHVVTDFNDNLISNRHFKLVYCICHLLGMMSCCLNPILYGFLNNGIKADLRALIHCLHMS
# [5] = target: T4, Human NPY2 receptor (Homo sapiens, UniProt P49146); assay: Human NPY2 Receptor Binding Assay; details: [125I]PYY; read-out: hPPY2 IC50
# T4 sequence (P49146 1-381): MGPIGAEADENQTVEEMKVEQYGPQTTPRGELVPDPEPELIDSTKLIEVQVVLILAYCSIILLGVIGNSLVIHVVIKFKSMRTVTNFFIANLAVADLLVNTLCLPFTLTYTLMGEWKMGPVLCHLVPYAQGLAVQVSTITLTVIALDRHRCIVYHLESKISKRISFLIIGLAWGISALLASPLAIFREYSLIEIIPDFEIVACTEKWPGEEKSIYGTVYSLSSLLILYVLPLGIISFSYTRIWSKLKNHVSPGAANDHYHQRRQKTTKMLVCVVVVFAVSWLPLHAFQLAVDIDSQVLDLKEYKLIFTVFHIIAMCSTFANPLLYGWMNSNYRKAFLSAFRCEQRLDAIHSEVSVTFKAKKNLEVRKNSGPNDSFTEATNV
# Human NPY4/PP1 receptor, sequence (P50391 whole entry): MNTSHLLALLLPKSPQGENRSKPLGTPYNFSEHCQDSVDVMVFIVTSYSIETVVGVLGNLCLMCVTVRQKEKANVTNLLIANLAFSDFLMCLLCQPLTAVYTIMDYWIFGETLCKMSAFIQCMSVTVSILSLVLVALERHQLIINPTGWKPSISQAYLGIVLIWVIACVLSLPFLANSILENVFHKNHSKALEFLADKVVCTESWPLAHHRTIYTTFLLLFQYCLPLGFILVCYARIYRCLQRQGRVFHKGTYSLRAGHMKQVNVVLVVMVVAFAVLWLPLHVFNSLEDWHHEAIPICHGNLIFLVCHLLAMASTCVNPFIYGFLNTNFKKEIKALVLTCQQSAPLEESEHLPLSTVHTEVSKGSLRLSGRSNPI
compound,measurement,setting,value
"Cn1ccnc1SCC(=O)Nc1ccc(-c2ccccc2)cc1 [Compound 1, N-Biphenyl-4yl-2-(1-methyl-1H-imidazol-2-ylsulfanyl)-acetamide]",IC50,[1],> 5 µM
same,IC50,[2],> 5 µM
same,IC50,[3],0.64 µM
same,inhibition at 10 µM,[4],95%
same,IC50,[5],> 10 µM
"Cc1cc(-c2nnc(SCC(=O)Nc3ccc(C(F)(F)F)cc3)n2C)no1 [Compound 2, 2-[4-Methyl-5-(5-methyl-isoxazol-3-yl)-4H-[1,2,4]triazol-3-ylsultanyl]-N-(4-trifluoro-methyl-phenyl)-acetamide]",IC50,[1],> 5 µM
same,IC50,[2],> 5 µM
same,IC50,[3],> 10 µM
same,IC50,[4],> 10 µM
same,IC50,[5],> 5 µM
"O=C(CSc1ncc[nH]1)Nc1ccc(C(=O)c2ccccc2)cc1 [Compound 4, N-(4-Benzoyl-phenyl)-2-(1H-imidazol-2-ylsultanyl)-acetamide]",IC50,[1],> 5 µM
same,IC50,[2],> 5 µM
same,IC50,[4],0.36 µM
same,IC50,[5],> 5 µM
"Cc1ccccc1NC(=O)CCC(Oc1ccccc1)C(=O)Nc1ccccc1C (stereo not drawn) [Compound 6, 2-Phenoxy-pentanedioic acid bis-o-tolylamide]",IC50,[1],> 5 µM
same,IC50,[2],> 5 µM
same,IC50,[3],0.16 µM
same,IC50,[4],0.18 µM
same,IC50,[5],> 5 µM
"O=C(CCC(Sc1ccccc1)C(=O)Nc1ccccc1)Nc1ccccc1 (stereo not drawn) [Compound 7, 2-Phenylsulfanyl-pentanedioic acid bis-phenylamide]",IC50,[1],> 5 µM
same,IC50,[2],> 5 µM
same,IC50,[3],1.6 µM
same,IC50,[4],0.44 µM
same,IC50,[5],> 5 µM
"Cc1cc(C)n2nc(SCC(=O)Nc3ccc(Cl)cc3)nc2n1 [Compound 137, reference compound]",IC50,[1],> 5 µM
same,IC50,[2],> 5 µM
same,IC50,[3],> 10 µM
same,IC50,[4],> 10 µM
same,IC50,[5],> 5 µM
"Cc1nc(-c2nnc(SCC(=O)Nc3ccc(Cl)cc3)n2C)cs1 [Compound 138, N-(4-Chloro-phenyl)-2-(4-methyl-5-(2-methyl-thiazolo-yl)-4H-[1,2,4]triazol-3-ylsulfanyl]-acetamide, reference compound]",IC50,[1],> 5 µM
same,IC50,[2],> 5 µM
same,IC50,[3],> 10 µM
same,inhibition at 10 µM,[4],52%
same,IC50,[5],> 5 µM
"Cn1ccnc1SCC(=O)Nc1ccc(Cl)cc1 [Compound 139, N-(4-Chloro-phenyl)-2-(1-methyl-1H-imidazoI-2-ylsulfanyl)-acetamide, reference compound]",IC50,[1],> 5 µM
same,IC50,[2],> 5 µM
same,IC50,[3],> 10 µM
same,IC50,[4],> 10 µM
same,IC50,[5],> 5 µM
"CCn1c(SCC(=O)Nc2ccc(Cl)cc2)nc2ccccc21 [Compound 140, N-(4-Chloro-phenyl)-2-(1-ethyl-1H-berzoimidazol-2-ylsulfanyl)-acetamide, reference compound]",IC50,[1],> 5 µM
same,IC50,[2],> 5 µM
same,IC50,[3],> 10 µM
same,inhibition at 10 µM,[4],61%
same,IC50,[5],> 5 µM
"CC(C)c1ccc(NC(=O)CSc2n[nH]c(=O)n2-c2cccc(F)c2)cc1 [Compound 141, reference compound]",IC50,[1],> 5 µM
same,IC50,[2],> 5 µM
same,IC50,[3],3 µM
same,IC50,[4],3 µM
same,IC50,[5],> 5 µM
"CSc1ncc(-c2nnc(SCC(=O)Nc3ccc(Cl)cc3)n2C)n1C [Compound 142, N-(4-Chloro-phenyl)-2-(4-methyl-5-(3-methyl-2-methylsulfanyl-3H-imidazol-4-yl)-4H-[1,2,4]triazol-3-ylsulfanyl]-acetamide, reference compound]",IC50,[1],> 5 µM
same,IC50,[2],> 5 µM
same,IC50,[3],> 10 µM
same,IC50,[4],> 10 µM
same,IC50,[5],> 5 µM
"Cn1ccnc1SCC(=O)Nc1ccc(C(C)(C)C)cc1 [Compound 143, N-(4-tert-Butyl-phenyl)-2-(1-methyl-1H-imidazol-2-ylsulfanyl)-acetamide, reference compound]",IC50,[1],> 5 µM
same,IC50,[2],> 5 µM
same,IC50,[3],3.1 µM
same,IC50,[4],3.9 µM
same,IC50,[5],> 5 µM
"Cn1nnnc1SCC(=O)Nc1ccc(OC(F)(F)F)cc1 [Compound 144, 2-(1-Methyl-1H-tetrazol-5-ylsulfanyl)-N-(4-trifluoromethoxy-phenyl)-acetamide, reference compound]",IC50,[1],> 5 µM
same,IC50,[2],> 5 µM
same,IC50,[3],1.2 µM
same,IC50,[4],1.4 µM
same,IC50,[5],> 5 µM
"Cn1ccnc1SCC(=O)Nc1ccc(I)cc1 [Compound 145, N-(4-Iodo-phenyl)-2-(1-methyl-1H-imidazol-2-ylsulfanyl)-acetamide, reference compound]",IC50,[1],> 5 µM
same,IC50,[2],> 5 µM
same,IC50,[3],> 10 µM
same,IC50,[4],> 10 µM
same,IC50,[5],> 5 µM
"CN1CCN=C1SCC(=O)Nc1ccc(F)cc1 [Compound 146, N-(4-Fluoro-phenyl)-2-(1-methyl-4,5-dihydro-1H-imidazol-2-ylsulfanyl)-acetamide, reference compound]",IC50,[1],> 5 µM
same,IC50,[2],> 5 µM
same,IC50,[3],> 10 µM
same,IC50,[4],> 10 µM
same,IC50,[5],> 5 µM
"O=C(CSc1n[nH]c(=O)n1-c1cccc(F)c1)Nc1ccc(Cl)cc1 [Compound 147, reference compound]",IC50,[1],> 5 µM
same,IC50,[2],> 5 µM
same,IC50,[3],> 10 µM
same,IC50,[4],> 10 µM
same,IC50,[5],> 5 µM
"CCC(C)c1ccc(NC(=O)CSc2nccn2C)cc1 (stereo not drawn) [Compound 148, N-(4-sec-Butyl-phenyl)-2-(1-methyl-1H-imidazo1-2-ylsulfanyl)-acetamide, reference compound]",IC50,[1],> 5 µM
same,IC50,[2],> 5 µM
same,IC50,[3],4 µM
same,IC50,[4],2.4 µM
same,IC50,[5],> 5 µM
"Cc1ccc(SCC(=O)Nc2cccc(C#N)c2)cc1 [Compound 151, N-(3-Cyano-phenyl)-2-p-tolylsulfanyl-acetamide, reference compound]",IC50,[1],> 5 µM
same,IC50,[2],> 5 µM
same,IC50,[3],0.24 µM
same,IC50,[4],0.28 µM
same,IC50,[5],> 5 µM
"Cn1cnnc1SCC(=O)Nc1ccc(C2CCCCC2)cc1 [Compound 173, N-(4-Cyclohexyl-phenyl)-2-(4-methyl-4H-[1,2,4]triazol-3-ylsulfanyl)-acetamide, reference compound]",IC50,[1],> 5 µM
same,IC50,[2],> 5 µM
same,IC50,[3],0.08 µM
same,IC50,[4],0.073 µM
"Cc1ccc(NC(=O)CSc2nncn2C)cc1 [Compound 174, 2-(4-Methyl-4H-[1,2,4]triazol-3-ylsulfanyl)-N-p-tolyl-acetamide, reference compound]",IC50,[1],> 5 µM
same,IC50,[2],> 5 µM
same,IC50,[3],> 10 µM
same,IC50,[4],> 10 µM
"Cn1c(Cn2cc(C(F)(F)F)ccc2=O)nnc1SCC(=O)Nc1ccc(Cl)cc1 [Compound 175, N-(4-Chloro-phenyl)-2-[4-methyl-5-(2-oxo-5-trifluoromethyl-2H-pyridin-1-ylmethyl)-4H-[1,2,4]triazol-3-ylsulfanyl]-acetamide, reference compound]",IC50,[1],> 5 µM
same,IC50,[2],> 5 µM
same,IC50,[3],7 µM
same,IC50,[5],> 5 µM
"CC(C)c1ccc(NC(=O)CSc2nnc(Cn3cc(C(F)(F)F)ccc3=O)n2C)cc1 [Compound 176, N-(4-isopropyl-phenyl)-2-[4-methyl-5-(2-oxo-5-trifluoromethyl-2H-yridin-1-ylmethyl)-4H-[1,2,4]triazol-3-ylsulfanyl]-acetamide, reference compound]",IC50,[1],> 5 µM
same,IC50,[2],> 5 µM
same,IC50,[3],3 µM
same,IC50,[5],> 5 µM
